Results taken from article PMC7926352, “Synthesis, Characterization and In Vitro Evaluation of Novel 5-Ene-thiazolo[3,2-b][1,2,4]triazole-6(5H)-ones as Possible Anticancer Agents” (Molecules, 2021).
pIC50: −log10 of the molar value. Where two headings read alike, the source gives them in different places.

Legend:
[1] = system: human embryonic kidney (HEK 293) cell lines; experiment: MTT cytotoxicity assay; type: cell-based; details: HEK 293, MTT, 24 h
Description: Compounds 2h and 2i were also evaluated in vitro for their cytotoxic potential against human embryonic kidney (HEK 293) cell lines using the MTT assay.
The cytotoxicity of compounds 2h and 2i was analyzed in vitro by the MTT colorimetric assay on human embryonic kidney cell lines (HEK 293). HEK cell lines were cultured in DMEM supplemented with 10% fetal calf serum and 1% antibiotic-antimycotic mixture culture plates at 37 °C and 5% CO2-humidified incubator. Cells were seeded at a density of 1 × 10^5 cells/well in 96-well plate for 24 h; then, cells were washed and incubated in fresh medium. Compounds 2h and 2i were added at a concentration of 1, 5, 10, 25, and 50 μg/mL to triplicate wells and kept for 24 h, after which cells were washed three times with PBS. After washing, 20 μL of MTT solution (5 mg/mL stock solution) were added to each well, and cells were then incubated for an additional 4 h. The unreacted MTT dye and medium were aspirated off, and 100 μL of DMSO was added to each well to ensure solubilization of formazan crystals. The contents of the plates were mixed for 15 min to achieve complete solubilization of the formazan crystals, and the measurement of optical density was carried out at 570 nm with a micro plate spectrophotometer (MRX Microplate Reader, Dynatech Laboratories Inc., Chantilly, VA, USA) at 570 nm.

[2] = system: SNB-19; type: cell-based; details: SNB-19, CNS Cancer
[3] = system: CCRF-CEM; details: Leukemia
[4] = system: MOLT-4; details: MOLT-4, Leukemia
[5] = system: RPMI-8226; details: RPMI-8226, Leukemia
[6] = system: NCI-H522; details: NCI-H522, NSCLC
[7] = system: SW-620; details: SW-620, Colon cancer
[8] = system: SF-295; details: SF-295, CNS Cancer
[9] = system: U251; details: U251, CNS Cancer
[10] = system: OVCAR-3; details: OVCAR-3, Ovarian Cancer
[11] = system: OVCAR-4; details: OVCAR-4, Ovarian Cancer
[12] = system: OVCAR-5; details: OVCAR-5, Ovarian Cancer
[13] = system: OVCAR-8; details: OVCAR-8, Ovarian Cancer
[14] = system: SK-OV-3; details: SK-OV-3, Ovarian Cancer
[15] = system: 786-0; details: 786-0, Renal Cancer
[16] = system: A498; details: A498, Renal Cancer
[17] = system: ACHN; details: Renal Cancer
[18] = system: RXF 393; details: RXF 393, Renal Cancer
[19] = system: UO-31; details: UO-31, Renal Cancer
[20] = system: NCI/ADR-RES; details: Breast Cancer
[21] = system: MDA-MB-435; details: MDA-MB-435, Breast Cancer
[22] = system: MDA-MB-231/ATCC; details: MDA-MB-231/ATCC, Breast Cancer
[23] = system: NSCLC (Non-small Cell Lung Cancer) cell lines; details: NSCLC subpanel
[24] = system: Melanoma cell lines; details: Melanoma subpanel
[25] = system: Prostate Cancer cell lines; details: Prostate Cancer subpanel
[26] = read-out: GI50, values range inside panel

Substance: Ethyl(Z)-4-(3-(4-chloro-2-((6-oxothiazolo[3,2-b][1,2,4]triazol-5(6H)-ylidene)methyl)phenyl)propanamido)benzoate [Compound 2i]
- pIC50 [1]: 4.61
- GI50 [2]: 10.2 µM
- TGI [2]: 23.44 µM
- CC50 ([2]; read-out: LC50 (the source's name)): 52.5 µM
- GI50 [3]: 2.88 µM
- TGI [3]: 9.99 µM
- GI50 [4]: 18.2 µM
- TGI [4]: 52.48 µM
- GI50 [5]: 5.37 µM
- TGI [5]: 25.70 µM
- GI50 [6]: 11.7 µM
- TGI [6]: 28.84 µM
- GI50 [7]: 9.99 µM
- TGI [7]: 21.37 µM
- GI50 [8]: 10.5 µM
- TGI [8]: 23.44 µM
- GI50 [9]: 6.6 µM
- TGI [9]: 19.05 µM
- GI50 [10]: 13.8 µM
- TGI [10]: 27.54 µM
- GI50 [11]: 12.9 µM
- TGI [11]: 38.90 µM
- GI50 [12]: 15.5 µM
- TGI [12]: 30.19 µM
- GI50 [13]: 13.5 µM
- TGI [13]: 33.88 µM
- GI50 [14]: 19.9 µM
- TGI [14]: 35.48 µM
- GI50 [15]: 11.2 µM
- TGI [15]: 23.98 µM
- GI50 [16]: 17.4 µM
- TGI [16]: 31.62 µM
- GI50 [17]: 15.5 µM
- TGI [17]: 28.84 µM
- GI50 [18]: 5.75 µM
- TGI [18]: 21.37 µM
- GI50 [19]: 15.1 µM
- TGI [19]: 29.51 µM
- GI50 [20]: 21.9 µM
- TGI [20]: 67.60 µM
- GI50 [21]: 10.5 µM
- TGI [21]: 25.11 µM
- GI50 [22]: 12.3 µM
- TGI [22]: 26.91 µM
- TGI, panel MG_MID [23]: 30.03 µM
- TGI, values range inside panel [23]: 25.70 to 39.81 µM
- GI50 ([23]; read-out: GI50, panel MG_MID): 14.1 µM
- GI50 [23, 26]: 10.2 to 19.5 µM
- TGI, panel MG_MID [24]: 25.61 µM
- TGI, values range inside panel [24]: 18.19 to 33.11 µM
- GI50 ([24]; read-out: GI50, panel MG_MID): 11.8 µM
- GI50 [24, 26]: 5.62 to 14.8 µM
- CC50 ([24]; read-out: LC50, panel MG_MID): 55.4 µM
- TGI, panel MG_MID [25]: 27.11 µM
- TGI, values range inside panel [25]: 16.21 to 38.01 µM
- GI50 ([25]; read-out: GI50, panel MG_MID): 7.6 µM
- GI50 [25, 26]: 3.98 to 11.2 µM
